# Results taken from the NIST ThermoML archive (doi:10.1021/je060257y).
# Numbers after ± are expanded uncertainties.
# Experiment: molar heat capacity at constant pressure
# Settings: 101.33 kPa, Crystal
SMILES,molar heat capacity at constant pressure (298.15 K) [J/K/mol],molar heat capacity at constant pressure (303.15 K) [J/K/mol],molar heat capacity at constant pressure (308.15 K) [J/K/mol],molar heat capacity at constant pressure (313.15 K) [J/K/mol],molar heat capacity at constant pressure (318.15 K) [J/K/mol],molar heat capacity at constant pressure (323.15 K) [J/K/mol],molar heat capacity at constant pressure (328.15 K) [J/K/mol],molar heat capacity at constant pressure (333.15 K) [J/K/mol],molar heat capacity at constant pressure (338.15 K) [J/K/mol],molar heat capacity at constant pressure (343.15 K) [J/K/mol]
O=c1cc(Cl)[nH]c(=O)[nH]1 [6-chlorouracil],139.4 ± 4.3,141 ± 4.4,141.2 ± 4.4,140.8 ± 4.4,141.3 ± 4.4,144.7 ± 4.5,144.9 ± 4.5,145.1 ± 4.5,146 ± 4.5,147.9 ± 4.6
"CCCCc1cn(C)c(=O)n(C)c1=O [2,4(1H,3H)-pyrimidinedione, 5-butyl-1,3-dimethyl-]",358.1 ± 14,544.2 ± 22,,,,,,,,
"Cn1c(=O)cc[nH]c1=O [uracil, 3-methyl-]",157 ± 5,168.8 ± 5.3,181.2 ± 5.7,193 ± 6,206.1 ± 6.4,214.3 ± 6.6,226.1 ± 7,239.2 ± 7.4,249 ± 7.7,260.2 ± 8.1
"Cn1ccc(=O)n(C)c1=O [1,3-dimethyl-2,4-(1H,3H)-pyrimidinedione]",182.5 ± 5.7,185.4 ± 5.7,188.7 ± 5.8,191.2 ± 5.9,193.8 ± 6,196.4 ± 6.1,199.1 ± 6.2,201 ± 6.2,203.3 ± 6.3,206.8 ± 6.4
"O=c1cc[nH]c(=O)[nH]1 [2,4(1H,3H)-pyrimidinedione]",131.8 ± 4.7,135.5 ± 4.7,140.9 ± 4.9,143 ± 4.9,146.1 ± 5,149 ± 5.1,151.8 ± 5.1,154.3 ± 5.2,156.8 ± 5.2,157.4 ± 5.3
"Cn1c2c(c(=O)n(C)c1=O)CCC2 [1,3-dimethyl-5,6-trimethyleneuracil]",252.9 ± 7.8,258.1 ± 8,261.8 ± 8.1,,,,,,,
"CCc1cn(C)c(=O)n(C)c1=O [2,4(1H,3H)-pyrimidinedione, 5-ethyl-1,3-dimethyl-]",241.1 ± 8.5,250.1 ± 8.7,256.5 ± 8.8,261 ± 8.9,264.3 ± 9,267.4 ± 9.1,270.7 ± 9.1,275.2 ± 9.3,281.7 ± 9.4,291.1 ± 9.6
